PMC10698726 (Molecular Pharmaceutics, 2023)
Read-outs that look alike come from different tables or passages of the source.

How the values were obtained:
OCT3 = target: T1, OCT3 (Homo sapiens, UniProt O75751); experiment: Inhibition of model substrate uptake in OCT3-overexpressing HEK293 cells; assay type: cell-based
T1 construct: expressed in transfected cells; host or cells: HEK293
T1 sequence (O75751 1-556): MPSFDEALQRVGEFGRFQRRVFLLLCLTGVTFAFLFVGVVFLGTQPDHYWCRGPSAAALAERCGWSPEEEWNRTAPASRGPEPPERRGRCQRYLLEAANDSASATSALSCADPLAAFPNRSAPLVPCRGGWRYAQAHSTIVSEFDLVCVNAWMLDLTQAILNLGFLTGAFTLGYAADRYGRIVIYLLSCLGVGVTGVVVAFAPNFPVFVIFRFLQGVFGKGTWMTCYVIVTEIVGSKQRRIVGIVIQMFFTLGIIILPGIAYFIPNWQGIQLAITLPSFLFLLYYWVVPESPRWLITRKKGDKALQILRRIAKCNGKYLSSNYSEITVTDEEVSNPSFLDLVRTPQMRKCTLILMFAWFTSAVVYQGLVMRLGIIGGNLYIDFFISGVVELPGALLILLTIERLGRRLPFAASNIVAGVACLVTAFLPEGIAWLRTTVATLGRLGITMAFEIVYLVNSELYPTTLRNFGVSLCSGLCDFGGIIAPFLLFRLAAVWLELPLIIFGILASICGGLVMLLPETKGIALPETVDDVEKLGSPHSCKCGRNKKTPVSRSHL
Method: (§1) All experiments were carried out in transporter-overexpressing HEK293 cells. OCT1-, OCT2-, NET-, DAT-, and SERT-overexpressing cells as well as the empty-vector transfected control cell line were generated as described earlier,[26]−[28] whereas the OCT3-overexpressing HEK293 cells were generous gift of from Drs. Koepsell and Gorbulev (University of Würzburg, Germany). All cells were cultivated in Dulbecco’s modified Eagle’s medium (DMEM) supplemented with 10% (v/v) FCS, penicillin (100 U/mL), and streptomycin (100 μg/mL) and kept in culture for no longer than 30 passages.
(§2) As for the transport experiments, 300,000 HEK293 cells were plated in poly-D-lysine-coated 24-well plates 2 days ahead of the experiment. On every plate, two wells of empty vector (EV)-transfected cells were used as a control to account for the passive influx of the model substrate, and two wells of transporter-overexpressing cells were used to determine the noninhibited uptake of the model substrate. Cells were initially washed once with 37 °C HBSS+ and then incubated with 2 μM model substrate (0.2 μM for MPP^+ uptake by MATs) with and without 20 μM inhibitor for 5 min. For concentration-dependent inhibition experiments, the cells were incubated with increasing inhibitor concentrations. The incubation was terminated by aspiration of the buffer before cells were washed twice with ice-cold HBSS+ and lysed in 80% acetonitrile. Cell lysates were transferred into a black 96-well plate for the fluorescence measurement of ASP^+ or used for sample preparation for LC–MS/MS analysis. […] Fluorescence quantification was performed in technical duplicates.
(§3) Transporter-mediated net uptake was calculated as the difference between uptake in transporter-overexpressing cells and that in the empty-vector-transfected control. […] Vmax is the maximum transport velocity, while Km is defined as the substance concentration that is required to reach half of vmax. The ratio of vmax over Km is termed intrinsic clearance Clint. For inhibition experiments, the transport activity was calculated by using the following equation [drawing 1]
(§4) SubstrateEV refers to the passive uptake of model substrates into the control cells and substratenoninhibited is the uptake in transporter-overexpressing cells without the presence of any inhibitor. The percent inhibition values are then calculated as described in the following [drawing 2]
(§5) For concentration inhibition experiments, the transporter activity was plotted against the log10 of inhibitor concentrations, and the data were fitted by the following equation to determine IC50 values [drawing 3]
(§6) Y refers to the transporter activity, whereas Ymax is the maximum and Ymin is the minimal transporter activity. X is the log10 of inhibitor concentrations, IC50 is the half-maximal inhibitory concentration, and hill slope is the slope factor.

OCT2 = target: T2, OCT2 (Homo sapiens, UniProt O15244); experiment: Inhibition of model substrate uptake in OCT2-overexpressing HEK293 cells; conditions: for IC50: IC50, OCT2, Table S5, 2 μM ASP+ as model substrate; for IC50 / ASP+ inhibition [%] / N-Ethyllidocaine inhibition [%] / inhibition at 5 min, 20 μM / (S,S)-Ethambutol inhibition [%]: 5 min; for ASP+ inhibition [%] / N-Ethyllidocaine inhibition [%] / inhibition at 5 min, 20 μM / (S,S)-Ethambutol inhibition [%]: OCT2, 20 μM inhibitor; for inhibition at 5 min, 20 μM: OCT2-overexpressing HEK293 cells
T2 sequence (O15244 1-555): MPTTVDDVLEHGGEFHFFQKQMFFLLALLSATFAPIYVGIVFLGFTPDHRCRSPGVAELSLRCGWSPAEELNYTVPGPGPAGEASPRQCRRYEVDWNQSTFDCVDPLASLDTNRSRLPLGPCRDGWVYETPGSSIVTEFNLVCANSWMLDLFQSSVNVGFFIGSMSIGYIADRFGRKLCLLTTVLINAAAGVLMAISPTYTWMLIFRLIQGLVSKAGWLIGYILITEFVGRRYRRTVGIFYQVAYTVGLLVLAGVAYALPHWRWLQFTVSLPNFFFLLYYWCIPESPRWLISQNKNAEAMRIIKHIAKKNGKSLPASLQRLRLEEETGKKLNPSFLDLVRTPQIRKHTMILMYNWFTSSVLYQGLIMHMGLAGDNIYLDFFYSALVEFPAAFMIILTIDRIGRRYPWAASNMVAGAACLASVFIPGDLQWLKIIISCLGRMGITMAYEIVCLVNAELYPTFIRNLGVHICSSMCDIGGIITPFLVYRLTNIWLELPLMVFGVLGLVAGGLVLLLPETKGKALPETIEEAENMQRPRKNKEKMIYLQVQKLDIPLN
Method: as §1, §2, §3, §4, §5, §6

OCT1 = target: T3, OCT1 (Homo sapiens, UniProt O15245); experiment: Inhibition of model substrate uptake in OCT1-overexpressing HEK293 cells; assay type: cell-based; set-up: expressed in transfected cells; host or cells: HEK293; conditions: for inhibition at 5 min, 20 μM: OCT1-overexpressing HEK293 cells; for IC50: 2 μM ASP+ or ethambutol as model substrate
T3 sequence (O15245 1-554): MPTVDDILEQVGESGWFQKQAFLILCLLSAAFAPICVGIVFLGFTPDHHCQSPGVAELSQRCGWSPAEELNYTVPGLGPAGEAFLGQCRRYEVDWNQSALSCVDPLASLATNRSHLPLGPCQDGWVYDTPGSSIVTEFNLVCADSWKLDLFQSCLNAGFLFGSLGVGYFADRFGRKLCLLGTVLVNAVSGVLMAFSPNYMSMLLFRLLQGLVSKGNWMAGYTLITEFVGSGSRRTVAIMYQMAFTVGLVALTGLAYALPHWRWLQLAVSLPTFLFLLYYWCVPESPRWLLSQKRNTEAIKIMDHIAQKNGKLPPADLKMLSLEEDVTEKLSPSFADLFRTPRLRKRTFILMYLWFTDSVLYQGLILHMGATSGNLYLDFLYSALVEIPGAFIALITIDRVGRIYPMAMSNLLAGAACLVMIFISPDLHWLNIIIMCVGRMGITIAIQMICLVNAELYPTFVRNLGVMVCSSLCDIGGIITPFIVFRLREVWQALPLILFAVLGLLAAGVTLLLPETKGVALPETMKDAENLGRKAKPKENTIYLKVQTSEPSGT
Method: Koepsell and Gorbulev (University of Würzburg, Germany).
Fluorescence quantification was performed in technical duplicates.

[1] = OCT3, 20 μM inhibitor, 2 μM ASP+, 5 min
[2] = OCT1, 20 μM inhibitor, 2 μM ASP+, 5 min, mean of three experiments
[3] = HEK293, 5 min, read-out: (S)-Zolmitriptan inhibition [%], OCT3, 20 μM inhibitor, 2 μM (S)-zolmitriptan, 5 min
[4] = HEK293, 5 min, read-out: (S,S)-Ethambutol inhibition [%], OCT3, 20 μM inhibitor, 2 μM (S,S)-ethambutol, 5 min
[5] = HEK293, OCT3, 20 μM inhibitor, 2 μM ASP+, 5 min, read-out: ASP+ inhibition [%]
[6] = human, pH 7.4, probe (S,S)-ethambutol (2 μM), (S,S)-Ethambutol inhibition [%], 2 μM (S,S)-ethambutol
[7] = human, pH 7.4, probe ASP+ (2 μM), ASP+ inhibition [%], 2 μM ASP+
[8] = human, pH 7.4, probe N-ethyllidocaine (2 μM), N-Ethyllidocaine inhibition [%], 2 μM N-ethyllidocaine
[9] = human, pH 7.4, probe (S,S)-ethambutol (2 μM), (S,S)-Ethambutol inhibition [%], OCT1, 20 μM inhibitor, 2 μM (S,S)-ethambutol, 5 min
[10] = human, pH 7.4, probe ASP+ (2 μM), OCT1, 20 μM inhibitor, 2 μM ASP+, 5 min, mean of three experiments, read-out: ASP+ inhibition [%]
[11] = human, pH 7.4, probe sumatriptan (2 μM), OCT1, 20 μM inhibitor, 2 μM sumatriptan, 5 min, read-out: Sumatriptan inhibition [%]
[12] = OCT3, 20 μM inhibitor, 2 μM (S)-zolmitriptan, 5 min
[13] = OCT3, 20 μM inhibitor, 2 μM (S,S)-ethambutol, 5 min
[14] = OCT1, 20 μM inhibitor, 2 μM (S,S)-ethambutol, 5 min
[15] = OCT1, 20 μM inhibitor, 2 μM sumatriptan, 5 min

Row | Compound | ASP+ inhibition [%] (OCT3; [1]) | IC50 (OCT2) [µM] | ASP+ inhibition [%] (OCT2; 2 μM ASP+) | N-Ethyllidocaine inhibition [%] (OCT2; 2 μM N-ethyllidocaine) | ASP+ inhibition [%] (OCT1; [2]) | inhibition at 20 µM (OCT3; [3]) [%] | inhibition at 20 µM (OCT3; [4]) [%] | inhibition at 20 µM (OCT3; [5]) [%] | inhibition at 5 min, 20 μM (OCT2; [6]) [%] | inhibition at 5 min, 20 μM (OCT2; [7]) [%] | inhibition at 5 min, 20 μM (OCT2; [8]) [%] | inhibition at 5 min, 20 μM (OCT1; [9]) [%] | inhibition at 5 min, 20 μM (OCT1; [10]) [%] | inhibition at 5 min, 20 μM (OCT1; [11]) [%] | (S)-Zolmitriptan inhibition [%] (OCT3; [12]) | (S,S)-Ethambutol inhibition [%] (OCT3; [13]) | (S,S)-Ethambutol inhibition [%] (OCT2; 2 μM (S,S)-ethambutol) | (S,S)-Ethambutol inhibition [%] (OCT1; [14]) | Sumatriptan inhibition [%] (OCT1; [15]) | also measured
1 | C#CCN(C)[C@@H](C)Cc1ccccc1 [(S)-Deprenyl] | 9.6 | 3.4 | 88.0 | 47.7 | 26.1 |  |  |  |  |  |  |  |  |  |  |  |  |  |  | (S)-Zolmitriptan inhibition [%] (OCT3): 11.5%; (S,S)-Ethambutol inhibition [%] (OCT3): 20.9%; selectivity ratio (OCT2; human, pH 7.4): 1.4; Sumatriptan inhibition [%] (OCT1; human, pH 7.4): 68.6%
2 | COc1ccccc1OCCNC[C@H](O)COc1cccc2[nH]c3ccccc3c12 [(S)-Carvedilol] |  |  |  |  |  | 32.8 | 49.5 | 16.3 | 8.7 | 94.9 | 48.8 | 100 | 74.5 | 96.5 |  |  |  |  |  | 
3 | CCN(CC)CC#CCOC(=O)[C@@](O)(c1ccccc1)C1CCCCC1 [(S)-Oxybutynine] | 40.5 | 20.1 | 92.8 | 48.6 | 59.3 |  |  |  |  |  |  |  |  |  | 65.2 | 75.7 | 24.5 | 96.3 | 83.5 | IC50 (OCT3; IC50, OCT3, Table S5, 2 μM ASP+ or ethambutol as model substrate, 5 min): 40 µM; IC50 (OCT1; IC50, OCT1, Table S5, 5 min): 141 µM
4 | CNC[C@H](O)c1cccc(O)c1 [(R)-Phenylephrine] |  |  |  |  |  | -2.9 | 5 | -4.1 | -8.4 | 8.2 | -1.4 | 6.3 | 3.2 | -2.8 |  |  |  |  |  | 
5 | CC(C)C[C@H](N(C)C)C1(c2ccc(Cl)cc2)CCC1 [(S)-Sibutramine] | -0.8 |  | 83.9 | 44.0 | 38.0 |  |  |  |  |  |  |  |  |  |  |  |  |  |  | (S)-Zolmitriptan inhibition [%] (OCT3): 24.1; (S,S)-Ethambutol inhibition [%] (OCT3): 23.8; Sumatriptan inhibition [%] (OCT1; human, pH 7.4): 72.0%
6 | N[C@@H]1CONC1=O [(R)-Cycloserine] |  |  |  |  | -0.8 |  | 7.4 | 17.8 |  | 12.3 | 13.6 |  |  | 28 | -0.4 |  | 5.0 | 17.6 |  | 
7 | CCCN[C@@H]1CCc2nc(N)sc2C1 [(R)-Pramipexole] |  | 20.4 |  |  |  | 13 | 23.1 | 5.3 | 10.5 | 43.3 | 37.1 | 51.6 | 19.8 | 55.8 |  |  |  |  |  | IC50 (OCT1; OCT1, Table S5, 5 min, read-out: IC50): 20.2 µM
8 | (+)-Sparteine | 5.2 |  | 112.4 | 99.9 |  |  |  |  |  |  |  |  |  |  | 28.7 | 32.7 |  | 83.5 | 81.6 | 
9 | N[C@H]1CONC1=O [(S)-Cycloserine] | 19.3 |  | 14.6 | 14.6 | -2.6 |  |  |  |  |  |  |  |  |  | 6.3 | 12.2 | 0.8 | 0.3 | 35.9 | 
